Assay results from patent US6303630A, “Diarylsulfone non-nucleoside reverse transcriptase inhibitors of human immunodeficiency virus” (University of the Sciences in Philadelphia, priority 2000, dated 2001).
Like-named read-outs stand apart in the source and are kept apart here.

What was measured:
HIV-1 [1] = conditions: in vitro, McMahon et al. 1993; cited from earlier work
[2] = test system: HIV-1 reverse transcriptase; conditions: McMahon et al. 1993; cited from earlier work
HIV-1 [3] = conditions: Artico et al. 1995; cited from earlier work
HIV-1 [4] = test: NCI in vitro anti-HIV drug screen: XTT-formazan assay, protection of T4 lymphocytes (CEM) from HIV-1 cytopathic effects; assay type: cell-based, human immunodeficiency virus (HIV-1); conditions: for EC50 / inhibition at 200 µM / inhibition at 20 µM / inhibition at 2 µM / inhibition at 0.2 µM / inhibition at 63.2 µM / inhibition at 6.33 µM / inhibition at 0.0635 µM / inhibition at 0.634 µM: Human immunodeficiency virus 1, CCRF-CEM; for EC50: 144 h, HIV-1 infected CEM cells, 6 days, XTT, approximate values, read-out: EC50 (50% effective concentration against HIV cytopathic effects); for inhibition at 2 µM / activity at 2 µM: dose 2.00 × 10^-6 Molar; for inhibition at 6.33 µM / activity at 6.33 µM: dose 6.33 × 10^-6 Molar; for activity at 200 µM / activity at 20 µM / activity at 2 µM / activity at 0.2 µM / activity at 63.2 µM / activity at 6.33 µM / activity at 0.634 µM / activity at 0.0635 µM: Human immunodeficiency virus 1, Lymphocyte, read-out: Percent of Control, Infected; for TI50 (IC/EC), Therapeutic Index: IC50/EC50
How it was run: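 Protection from HIV-1 cytopathic killing was read spectrophotometrically via XTT formazan from viable cells after 6-day culture (37°, 5% CO2) of infected CEM cells with compound in half-log10 dilutions; drug-treated uninfected cells served as toxicity controls, AZT run alongside.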

[5] = test system: T4 lymphocytes (CEM cell line); test: Cell growth / toxicity control in uninfected T4 lymphocytes (CEM), XTT-formazan; assay type: cell-based; conditions: for IC50: approximate values; for activity at 200 µM / activity at 20 µM / activity at 2 µM / activity at 0.2 µM / activity at 63.2 µM / activity at 6.33 µM / activity at 0.634 µM / activity at 0.0635 µM: read-out: Percent of Control, Uninfected; for activity at 2 µM: dose 2.00 × 10^-6 Molar; for activity at 0.2 µM: dose 2.00 × 10^-7 Molar; for activity at 63.2 µM: dose 6.32 × 10^-5 Molar; for activity at 0.634 µM: dose 6.34 × 10^-7 Molar; for activity at 0.0635 µM: dose 6.35 × 10^-8 Molar
How it was run: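 Toxicity control: compound, first dissolved in DMSO and serially diluted half-log10 to a final 1:200 dilution, incubated 6 days at 37° and 5% CO2 with CEM cells lacking HIV-1. Viable cells measured spectrophotometrically via XTT-derived formazan and checked microscopically.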

[6] = dose 2.00 × 10^-4 Molar, read-out: Percent of Protection
[7] = dose 2.00 × 10^-5 Molar, read-out: Percent of Protection
[8] = read-out: Percent of Protection
[9] = dose 2.00 × 10^-7 Molar, read-out: Percent of Protection
[10] = dose 6.32 × 10^-5 Molar, read-out: Percent of Protection
[11] = dose 6.35 × 10^-8 Molar, read-out: Percent of Protection
[12] = read-out: Percent of Protection, dose 6.34 × 10^-7 Molar
[13] = Homo sapiens, CCRF-CEM, 144 h, uninfected CEM cells, 6 days, XTT, read-out: IC50 (50% inhibitory concentration for cell growth)
[14] = Homo sapiens, CCRF-CEM, dose 2.00 × 10^-4 Molar
[15] = Homo sapiens, CCRF-CEM, dose 2.00 × 10^-5 Molar
[16] = Homo sapiens, CCRF-CEM, dose 6.33 × 10^-6 Molar
[17] = dose 2.00 × 10^-4 Molar, listed as Example 21
[18] = dose 2.00 × 10^-5 Molar, listed as Example 21

SMILES | EC50 (HIV-1 [4]) | inhibition at 200 µM (HIV-1 [4]; [6]) | inhibition at 20 µM (HIV-1 [4]; [7]) | inhibition at 2 µM (HIV-1 [4]; [8]) | inhibition at 0.2 µM (HIV-1 [4]; [9]) | inhibition at 63.2 µM (HIV-1 [4]; [10]) | inhibition at 6.33 µM (HIV-1 [4]; [8]) | activity at 200 µM (HIV-1 [4]; dose 2.00 × 10^-4 Molar) | activity at 20 µM (HIV-1 [4]; dose 2.00 × 10^-5 Molar) | activity at 2 µM (HIV-1 [4]) | activity at 0.2 µM (HIV-1 [4]; dose 2.00 × 10^-7 Molar) | activity at 63.2 µM (HIV-1 [4]; dose 6.32 × 10^-5 Molar) | activity at 6.33 µM (HIV-1 [4]) | activity at 0.634 µM (HIV-1 [4]; dose 6.34 × 10^-7 Molar) | activity at 0.0635 µM (HIV-1 [4]; dose 6.35 × 10^-8 Molar) | activity at 2 µM ([5]; Homo sapiens, CCRF-CEM) | activity at 0.2 µM ([5]; Homo sapiens, CCRF-CEM) | activity at 63.2 µM ([5]; Homo sapiens, CCRF-CEM) | activity at 0.634 µM ([5]; Homo sapiens, CCRF-CEM) | activity at 0.0635 µM ([5]; Homo sapiens, CCRF-CEM) | also measured
O=[N+]([O-])c1ccccc1S(=O)(=O)c1ccccc1 [2-nitrophenyl phenylsulfone] |  |  |  |  |  |  |  |  |  |  |  |  |  |  |  |  |  |  |  |  | protecting human cells in culture from HIV-1 cytopathic effects / preventing HIV-1 replication (HIV-1 [1]): high efficacy; inhibition of HIV-1 replication via inhibition of HIV-1 reverse transcriptase [2]: inhibition of HIV-1 replication via inhibition of HIV-1 reverse transcriptase
CCOC(=O)c1cccn1S(=O)(=O)c1ccccc1[N+](=O)[O-] |  |  |  |  |  |  |  |  |  |  |  |  |  |  |  |  |  |  |  |  | anti-HIV-1 efficacy (HIV-1 [3]): the most efficacy
CNc1ccc(S(=O)(=O)c2ccccc2[N+](=O)[O-])cc1C [Compound 79, 4-(2-nitrophenyisulfonyl)-N,2-dimethylaniline] | 0.183 µM | 10.7% | 78.6% | 97% | 53.9% | 10.1% | 103% | 15.2% | 79.7% | 97.2% | 56.2% | 14.6% | 103% | 66.8% | 12.5% | 94% | 97.1% | 13.9% | 93% | 107% | inhibition at 0.0635 µM (HIV-1 [4]; [11]): 7.87%; inhibition at 0.634 µM (HIV-1 [4]; [12]): 65%; TI50 (IC/EC), Therapeutic Index (HIV-1 [4]): 1.79 × 10^-2; IC50 [5, 13]: 32.7 µM; activity at 200 µM [5, 14]: 11.9%; activity at 20 µM [5, 15]: 76.9%; activity at 6.33 µM [5, 16]: 98.2%
CNc1ccccc1S(=O)(=O)c1ccc(Cl)cc1OC [Compound 86, 2-(4-chloro-2-methoxyphenylsulfonyl)-N-methylaniline] | 106 µM | 78.8% | 5.32% | 0.36% | 1.18% | 27.1% | 1.52% | 79.2% | 7.21% | 2.35% | 3.16% | 28.5% | 3.49% | 3.2% | 2.03% | 96.5% | 91.7% | 95.9% | 97.1% | 95.8% | inhibition at 0.634 µM (HIV-1 [4]; dose 6.34 × 10^-7 Molar, read-out: Percent of Protection): 1.22%; inhibition at 0.0635 µM (HIV-1 [4]; [11]): 0.03%; TI50 (IC/EC), Therapeutic Index (HIV-1 [4]): > 1.88 × 10^0; IC50 [5, 13]: > 200 µM; activity at 200 µM [5, 14]: 83.9%; activity at 20 µM [5, 15]: 88.3%; activity at 6.33 µM [5, 16]: 94.8%
O=S(=O)(c1ccccc1)c1cccc2c1NCCC2 [Compound 45, 8-(phenylsulfonyl)-1,2,3,4-tetrahydroquinoline] | 14 µM | 42.2% | 67% | 2.49% | 0.38% | 59.8% | 13.3% | 43.3% | 67.7% | 4.44% | 2.37% | 60.6% | 15.1% | 2.22% | 0.49% | 93.3% | 84.2% | 74.2% | 89.7% | 87.2% | inhibition at 0.634 µM (HIV-1 [4]; [12]): 0.22%; inhibition at 0.0635 µM (HIV-1 [4]; read-out: Percent of Protection, dose 6.35 × 10^-8 Molar): -1.54%; TI50 (IC/EC), Therapeutic Index (HIV-1 [4]): 1.43 × 10^+1; IC50 ([5]; Homo sapiens, CCRF-CEM, 144 h, read-out: IC50 (50% inhibitory concentration for cell growth), uninfected CEM cells, 6 days, XTT): > 200 µM; activity at 200 µM [5, 14]: 62.1%; activity at 20 µM [5, 15]: 101%; activity at 6.33 µM [5, 16]: 94.3%
CNc1ccccc1S(=O)(=O)c1ccccc1[N+](=O)[O-] [Compound 66, 2-(2-nitrophenylsulfonyl)-N-methylaniline] | 1.02 µM |  |  | 93.1% |  |  | 107% |  |  | 93.8% |  |  | 106% |  |  | 101% | 105% | 23.9% | 99.4% | 98.5% | TI50 (IC/EC), Therapeutic Index (HIV-1 [4]; listed as Example 21): 4.24 × 10^+1; Percent of Protection (HIV-1 [4]; dose 2.00 × 10^-4 Molar, 200 µM, listed as Example 21, 200 µM): -15.92%; Percent of Control, Infected (HIV-1 [4]; [17]): -4.33%; Percent of Protection (HIV-1 [4]; dose 2.00 × 10^-5 Molar, 20 µM, listed as Example 21, 20 µM): 98.73%; Percent of Control, Infected (HIV-1 [4]; [18]): 98.86%; Percent of Protection (HIV-1 [4]; dose 2.00 × 10^-7 Molar, 0.2 µM, listed as Example 21, 0.2 µM): 4.77%; Percent of Control, Infected (HIV-1 [4]; dose 2.00 × 10^-7 Molar, listed as Example 21): 14.29%; Percent of Protection (HIV-1 [4]; dose 6.32 × 10^-5 Molar, 63.2 µM, listed as Example 21, 63.2 µM): 24.17%; Percent of Control, Infected (HIV-1 [4]; dose 6.32 × 10^-5 Molar, listed as Example 21): 31.75%; Percent of Protection (HIV-1 [4]; dose 6.34 × 10^-7 Molar, 0.634 µM, listed as Example 21, 0.634 µM): 19.34%; Percent of Control, Infected (HIV-1 [4]; dose 6.34 × 10^-7 Molar, listed as Example 21): 27.41%; Percent of Protection (HIV-1 [4]; dose 6.35 × 10^-8 Molar, 0.0635 µM, listed as Example 21, 0.0635 µM): 2.40%; Percent of Control, Infected (HIV-1 [4]; dose 6.35 × 10^-8 Molar, listed as Example 21): 12.16%; Percent of Control, Uninfected [5, 17]: -4.40%; Percent of Control, Uninfected [5, 18]: 104.09%; Percent of Control, Uninfected ([5]; dose 6.33 × 10^-6 Molar, listed as Example 21): 109.40%; IC50 ([5]; read-out: IC50 (50% inhibitory concentration for cell growth), uninfected CEM cells, 6 days, XTT, listed as Example 21): 43.5 µM
